Results as given in patent US7414068B2, “Benzopyran derivatives substituted with secondary amines including tetrazole, method for the preparation thereof and pharmaceutical compositions containing them” (Dongbu Hannong Chemical Co., Ltd., priority 2002, dated 2008).

Assays:
[1] = Acute oral toxicity test in rats; conditions: SD, rat, in vivo, single oral dose, suspended in 0.5% methyl cellulose, read-out: lethal dose (LD50) for oral administration
Procedure, shortened: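 Six-week-old SPF SD rats, two per group, received compounds orally as suspensions in 0.5% methyl cellulose. Endpoints were clinical signs, body weight, mortality, haematology, serum biochemistry and macroscopic necropsy of organs and tissues.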

[2] = test system: isolated ischemic rat heart; test: Cardioprotective effect in ischemic heart models of rats (Langendorff); conditions: 10 μM
Procedure, shortened: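 Langendorff-perfused male rat hearts (Krebs-Henseleit, 85 mmHg, 37 °C) pretreated 10 min with compound or vehicle (0.04% DMSO), then 30 min global ischemia and 30 min reperfusion. Read-outs: LVDP, HR, CF, rate-pressure product, time to contracture (first 5 mmHg EDP rise), LDH release.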

RAW 264.7 cells = test: Inhibitory effect on NO production (LPS, Griess reagent); type: cell-based, murine; conditions: Mus musculus, RAW264.7, 24 h, Addition 30 μM, LPS 1 μg/ml, read-out: Inihibition (%) of NO production
Description: Using RPMI1640 media supplemented with 10% fetal bovine serum (FBS), RAW 264.7 cells (obtained from American Type Culture Collection), a murine macrophage cell line, were cultured at 37° C. in a 5% CO2 incubator. The RAW 264.7 cells were harvested and cell density was adjusted to 5×10^5 cell/ml with a RPMI media supplemented with 0.5% FBS and plated at 5×10^4 cell/well to 96-well plate, which were then cultured for 20 hours in a CO2 incubator. After removal of the media, the cells were pre-treated for 1 hour with fresh media containing 30 μM. The test compounds were dissolved in DMSO and diluted to respective concentration in the media. In order to minimize DMSO effect on the nitric oxide formation by the RAW 264.7 cells in the walls, the media were allowed to contain DMSO at a concentration of 0.1% or less.
After completion of one-hour pre-treatment, Lipopolysaccharide (E. coli serotype 055:B5) was added to activate the cells at a final concentration of 1 μg/ml, which were maintained for 24 hours in a CO2 incubator. As a result of the activation of RAW 264.7 cells with LPS, NO was formed. The NO release into the media was in a form of nitrite (NO2^−) and quantitatively measured using the Griess reagent. A control group was treated only with vehicle instead of test compounds.
The inhibitory effect of the test compounds against NO production were determined as the reduction of NO quantity compared with that of the control group.

COC(OC)[C@@]1(C)Oc2ccc(N)cc2[C@H](N(Cc2nnn(C)n2)c2ccc(Cl)cc2)[C@H]1O [Example 11, (2S,3R,4S)-6-amino-4-[N-(4-chlorophenyl)-N-(2-methyl-2H-tetrazol-5-ylmethyl)amino]-3-hydroxy-2-methyl-2-dimethoxymethyl-3,4-dihydro-2H-1-benzopyran]
LD50 [1]: > 2000 mg/kg
EDP (mmHg) ([2]; after 30 min global ischemia and reperfusion): 47.6 mmHg
LDH (u/g) ([2]; reperfusion LDH release): 16.5 u/g
LVDP X HR (%) ([2]; reperfusion, % of pre-treatment DP): 24.8%
TTC ([2]; time to contracture during global ischemia): 19.9 min
inhibition at 30 µM (RAW 264.7 cells): 27%
